Test results from article PMC8138772 (The Journal of Biological Chemistry, 2021).
Entries after “also recorded” stand apart in the source; their conditions may differ. Each block holds one compound with its values, some of them ahead of it. [ ]: non-standard residue; d: D form. The star is where a group is joined. Biotin = O=C1N[C@H]2[C@H](CS[C@H]2CCCCC(=O)*)N1; Cit = NC(=O)NCCC[C@H](N)C(=O)O

Legend:
[1] = in vitro; conditions: mouse, serum
[2] = normal mouse serum; conditions: 37 °C
[3] = system: K562 cells; assay type: binding
[4] = target: K562 αvβ6:mCherry cells (αvβ6 integrin) (Homo sapiens, UniProt P06756+P18564); assay type: binding
Chain of K562 αvβ6:mCherry cells (αvβ6 integrin) (P06756 31-889 limits assumed): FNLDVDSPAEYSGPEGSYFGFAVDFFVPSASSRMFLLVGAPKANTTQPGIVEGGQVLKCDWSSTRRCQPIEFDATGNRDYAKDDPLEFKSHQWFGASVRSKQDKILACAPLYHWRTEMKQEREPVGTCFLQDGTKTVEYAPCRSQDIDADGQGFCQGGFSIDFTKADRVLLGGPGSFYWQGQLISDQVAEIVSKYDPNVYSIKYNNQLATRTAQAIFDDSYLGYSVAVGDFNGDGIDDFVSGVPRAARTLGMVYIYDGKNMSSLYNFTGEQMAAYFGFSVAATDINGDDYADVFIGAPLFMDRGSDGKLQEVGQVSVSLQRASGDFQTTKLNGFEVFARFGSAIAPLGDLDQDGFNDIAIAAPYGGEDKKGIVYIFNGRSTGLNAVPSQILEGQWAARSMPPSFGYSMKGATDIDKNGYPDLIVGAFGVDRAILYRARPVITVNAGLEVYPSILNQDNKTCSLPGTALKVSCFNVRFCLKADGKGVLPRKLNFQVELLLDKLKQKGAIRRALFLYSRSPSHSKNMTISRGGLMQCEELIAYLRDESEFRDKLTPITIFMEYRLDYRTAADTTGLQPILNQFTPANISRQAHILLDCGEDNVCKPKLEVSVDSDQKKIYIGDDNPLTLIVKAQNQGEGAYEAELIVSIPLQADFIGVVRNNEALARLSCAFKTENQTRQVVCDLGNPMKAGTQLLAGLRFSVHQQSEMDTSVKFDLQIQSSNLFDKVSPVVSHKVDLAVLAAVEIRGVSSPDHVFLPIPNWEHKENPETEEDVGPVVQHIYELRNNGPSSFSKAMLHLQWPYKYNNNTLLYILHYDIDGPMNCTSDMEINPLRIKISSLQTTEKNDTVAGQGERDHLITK
Chain of K562 αvβ6:mCherry cells (αvβ6 integrin) (P06756 891-1048 partner limits assumed): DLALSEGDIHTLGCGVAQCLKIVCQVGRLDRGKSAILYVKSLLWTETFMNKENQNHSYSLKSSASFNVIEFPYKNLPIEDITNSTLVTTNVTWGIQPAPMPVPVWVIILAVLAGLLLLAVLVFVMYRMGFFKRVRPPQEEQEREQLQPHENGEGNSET
Chain of K562 αvβ6:mCherry cells (αvβ6 integrin) (P18564 22-788 limits assumed): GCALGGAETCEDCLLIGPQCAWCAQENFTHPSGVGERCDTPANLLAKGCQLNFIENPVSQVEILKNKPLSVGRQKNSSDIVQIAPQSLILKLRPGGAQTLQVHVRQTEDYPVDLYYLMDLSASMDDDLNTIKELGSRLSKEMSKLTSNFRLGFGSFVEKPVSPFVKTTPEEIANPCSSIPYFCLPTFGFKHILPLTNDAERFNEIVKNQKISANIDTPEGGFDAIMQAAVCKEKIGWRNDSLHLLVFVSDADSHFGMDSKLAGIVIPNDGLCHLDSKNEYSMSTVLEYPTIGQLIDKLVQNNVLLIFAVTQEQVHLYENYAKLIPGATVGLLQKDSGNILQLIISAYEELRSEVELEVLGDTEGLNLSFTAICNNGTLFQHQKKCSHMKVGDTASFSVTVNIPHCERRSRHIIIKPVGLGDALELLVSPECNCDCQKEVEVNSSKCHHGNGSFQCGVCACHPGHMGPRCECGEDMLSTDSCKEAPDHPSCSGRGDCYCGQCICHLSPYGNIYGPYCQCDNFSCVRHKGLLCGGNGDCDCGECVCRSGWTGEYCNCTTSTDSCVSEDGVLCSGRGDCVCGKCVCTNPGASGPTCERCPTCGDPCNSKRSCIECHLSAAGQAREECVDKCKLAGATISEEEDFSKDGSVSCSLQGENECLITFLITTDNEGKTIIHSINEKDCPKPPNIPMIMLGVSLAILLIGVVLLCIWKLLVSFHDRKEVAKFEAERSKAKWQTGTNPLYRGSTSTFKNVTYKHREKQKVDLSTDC

[5] = mouse

Compound: CC(C)C[C@@H]1NC(=O)[C@H](CC(=O)O)NC(=O)CNC(=O)[C@H](CCCNC(=N)N)NC(=O)[C@H](CC(C)C)NC(=O)[C@H](CC(N)=O)NC(=O)[C@@H]2CCCN2C(=O)[C@H](C(C)C)NC(=O)[C@@H](NC(=O)[C@H](CC(N)=O)NC(=O)CCCC[C@@H]2SC[C@@H]3NC(=O)N[C@@H]32)CSc2c(F)c(F)c(c(F)c2F)-c2c(F)c(F)c(c(F)c2F)SC[C@@H](C(=O)N[C@@H](CCCNC(N)=O)C(=O)N[C@H](C(=O)N[C@@H](CCCCN)C(=O)N[C@H](C)C(N)=O)[C@@H](C)O)NC(=O)[C@H](C(C)C)NC(=O)[C@H](CCCCN)NC(=O)[C@H](CCC(N)=O)NC(=O)[C@H](C)NC(=O)[C@H](CC(C)C)NC(=O)[C@H](C(C)C)NC(=O)[C@H](CCC(N)=O)NC1=O [C2C18 CitTKAD DFBP]
half-life [1]: 298 min

Compound: Biotin-NCVPNLRGDLQVLAQKVCRDTKAD-NH2 (cysteine pairing not given here)
cleaved bond ([2]; up to 24 h): L6-Arg7, major, 8 h; also recorded: Arg7-G8, major, 8 h; also recorded: Asn1-C2, 24 h

cleaved bond ([2]; up to 24 h): Thr20-K21, 12 h
Compound: Biotin-NCVPNLRGDLQVLAQKVC[Cit]TKAD-NH2 (cysteine pairing not given here)

cleaved bond ([2]; up to 6 h): C18-arginine19, 2 h
Compound: Biotin-CAVPNLRGDLQVLAQKVCRTK-NH2 (cysteine pairing not given here) [C1C18 DFBP]

Compound: CC(C)C[C@@H]1NC(=O)[C@H](CC(=O)O)NC(=O)CNC(=O)[C@H](CCCNC(=N)N)NC(=O)[C@H](CC(C)C)NC(=O)[C@H](CC(N)=O)NC(=O)[C@@H]2CCCN2C(=O)[C@H](C(C)C)NC(=O)[C@@H](NC(=O)[C@H](CC(N)=O)NC(=O)CCCC[C@@H]2SC[C@@H]3NC(=O)N[C@@H]32)CSc2c(F)c(F)c(c(F)c2F)-c2c(F)c(F)c(c(F)c2F)SC[C@@H](C(=O)N[C@H](C(=O)N[C@@H](CCCCN)C(N)=O)[C@@H](C)O)NC(=O)[C@H](C)NC(=O)[C@H](C(C)C)NC(=O)[C@H](CCCCN)NC(=O)[C@H](CCC(N)=O)NC(=O)[C@H](C)NC(=O)[C@H](CC(C)C)NC(=O)[C@H](C(C)C)NC(=O)[C@H](CCC(N)=O)NC1=O [C2C19 DFBP]
binding to parental K562 cells (in words) [3]: significantly bound to parental K562 cells at high concentrations

fragment found ([2]; up to 24 h): 719: unidentified, 4 h
Compound: Biotin-CADVPNLRGDLQVLADQKVCRDTKDAD-NH2 (cysteine pairing not given here)
cleaved bond ([2]; up to 24 h): KD21-AD22, 24 h; also recorded: L6-Arg7, major

Compound: CC(C)C[C@@H]1NC(=O)[C@H](CC(=O)O)NC(=O)CNC(=O)[C@H](CCCNC(=N)N)NC(=O)[C@H](CC(C)C)NC(=O)[C@H](CC(N)=O)NC(=O)[C@@H]2CCCN2C(=O)[C@H](C(C)C)NC(=O)[C@H](C)NC(=O)[C@@H](NC(=O)CCCC[C@@H]2SC[C@@H]3NC(=O)N[C@@H]32)CSc2c(F)c(F)c(c(F)c2F)-c2c(F)c(F)c(c(F)c2F)SC[C@@H](C(=O)N[C@@H](CCCCN)C(N)=O)NC(=O)[C@H](CCCNC(=N)N)NC(=O)[C@H](C)NC(=O)[C@H](C(C)C)NC(=O)[C@H](CCCCN)NC(=O)[C@H](CCC(N)=O)NC(=O)[C@H](C)NC(=O)[C@H](CC(C)C)NC(=O)[C@H](C(C)C)NC(=O)[C@H](CCC(N)=O)NC1=O [C1C20 DFBP]
binding to K562 αvβ6:mCherry cells (in words) [4]: high affinity and specificity comparable to the original A20FMDV2 peptide

Compound: CC(C)C[C@@H]1NC(=O)[C@H](CC(=O)O)NC(=O)CNC(=O)[C@H](CCCNC(=N)N)NC(=O)[C@H](CC(C)C)NC(=O)[C@H](CC(N)=O)NC(=O)[C@@H]2CCCN2C(=O)[C@H](C(C)C)NC(=O)[C@H](C)NC(=O)[C@@H](NC(=O)CCCC[C@@H]2SC[C@@H]3NC(=O)N[C@@H]32)CSc2c(F)c(F)c(c(F)c2F)-c2c(F)c(F)c(c(F)c2F)SC[C@@H](C(=O)N[C@@H](CCCNC(=N)N)C(=O)N[C@H](C(=O)N[C@@H](CCCCN)C(N)=O)[C@@H](C)O)NC(=O)[C@H](C(C)C)NC(=O)[C@H](CCCCN)NC(=O)[C@H](CCC(N)=O)NC(=O)[C@H](C)NC(=O)[C@H](CC(C)C)NC(=O)[C@H](C(C)C)NC(=O)[C@H](CCC(N)=O)NC1=O [C1C18 DFBP]
binding to K562 αvβ6:mCherry cells (in words) [4]: high affinity and specificity comparable to the original A20FMDV2 peptide

cleaved bond ([2]; up to 6 h): C18-arginine19
Compound: Biotin-CAVPNLRGDLQVLAQKVCRTK-NH2 (cysteine pairing not given here)

cleaved bond ([2]; up to 6 h): C18-arginine19, 2 h
Compound: Biotin-NCVPNLRGDLQVLAQKVCRTK-NH2 (cysteine pairing not given here)

Compound: CC(C)C[C@@H]1NC(=O)[C@H](CC(=O)O)NC(=O)CNC(=O)[C@H](CCCNC(=N)N)NC(=O)[C@H](CC(C)C)NC(=O)[C@H](CC(N)=O)NC(=O)[C@@H]2CCCN2C(=O)[C@H](C(C)C)NC(=O)[C@@H](NC(=O)[C@H](CC(N)=O)NC(=O)CCCC[C@@H]2SC[C@@H]3NC(=O)N[C@@H]32)CSc2c(F)c(F)c(c(F)c2F)-c2c(F)c(F)c(c(F)c2F)SC[C@@H](C(=O)N[C@@H](CCCNC(=N)N)C(=O)N[C@H](C(=O)N[C@@H](CCCCN)C(N)=O)[C@@H](C)O)NC(=O)[C@H](C(C)C)NC(=O)[C@H](CCCCN)NC(=O)[C@H](CCC(N)=O)NC(=O)[C@H](C)NC(=O)[C@H](CC(C)C)NC(=O)[C@H](C(C)C)NC(=O)[C@H](CCC(N)=O)NC1=O [C2C18 DFBP]
binding to K562 αvβ6:mCherry cells (in words) [4]: high affinity and specificity comparable to the original A20FMDV2 peptide

cleaved bond ([2]; up to 24 h): Asn1-C2, 24 h
Compound: biotin-NCVPhNLRGDLQVLAQKVCRDTKAD-amide

Compound: CC(C)C[C@@H]1NC(=O)[C@H](CC(=O)O)NC(=O)CNC(=O)[C@H](CCCNC(=N)N)NC(=O)[C@H](CC(C)C)NC(=O)[C@H](CC(N)=O)NC(=O)[C@@H]2CCCN2C(=O)[C@H](C(C)C)NC(=O)[C@H](C)NC(=O)[C@@H](NC(=O)CCCC[C@@H]2SC[C@@H]3NC(=O)N[C@@H]32)CSc2c(F)c(F)c(c(F)c2F)-c2c(F)c(F)c(c(F)c2F)SC[C@@H](C(=O)N[C@H](C(=O)N[C@@H](CCCCN)C(N)=O)[C@@H](C)O)NC(=O)[C@H](C)NC(=O)[C@H](C(C)C)NC(=O)[C@H](CCCCN)NC(=O)[C@H](CCC(N)=O)NC(=O)[C@H](C)NC(=O)[C@H](CC(C)C)NC(=O)[C@H](C(C)C)NC(=O)[C@H](CCC(N)=O)NC1=O [C1C19 DFBP]
binding to parental K562 cells (in words) [3]: significantly bound to parental K562 cells at high concentrations

Compound: CC(C)C[C@@H]1NC(=O)[C@H](CC(=O)O)NC(=O)CNC(=O)[C@H](CCCNC(=N)N)NC(=O)[C@H](CC(C)C)NC(=O)[C@H](CC(N)=O)NC(=O)[C@@H]2CCCN2C(=O)[C@H](C(C)C)NC(=O)[C@@H](NC(=O)[C@H](CC(N)=O)NC(=O)CCCC[C@@H]2SC[C@@H]3NC(=O)N[C@@H]32)CSc2c(F)c(F)c(c(F)c2F)-c2c(F)c(F)c(c(F)c2F)SC[C@@H](C(=O)N[C@H](CCCNC(=N)N)C(=O)N[C@H](C(=O)N[C@@H](CCCCN)C(=O)N[C@H](C)C(N)=O)[C@@H](C)O)NC(=O)[C@H](C(C)C)NC(=O)[C@H](CCCCN)NC(=O)[C@H](CCC(N)=O)NC(=O)[C@H](C)NC(=O)[C@H](CC(C)C)NC(=O)[C@H](C(C)C)NC(=O)[C@H](CCC(N)=O)NC1=O [C2C18 RDTKAD DFBP]
reduced binding fluorescence (maximal signal versus A20FMDV2, Fig. 3B) [4]: ~60%
t1/2 of intact peptide in serum [5]: 4.518 h
